Laboratory results from US5677419A, “Cyclic vasoactive peptide analogs” (Hoffmann-La Roche Inc., priority 1994, dated 1997).
Where a SMILES comes first, the peptide text is derived from it. Bridges are numbered along the chain shown (N, C = ends). [ ]: non-standard residue; d: D form. Tyr(3-F) = N[C@@H](Cc1ccc(O)c(F)c1)C(=O)O; Nle = CCCC[C@H](N)C(=O)O

Key:
guinea pigs = test: In vivo bronchodilator activity by tracheal instillation against histamine challenge; set-up: species or system guinea pig; conditions: anesthetized male guinea pigs, inhibition of histamine (i.v.)-induced rise in tracheal pressure
Outline: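 Urethane-anaesthetised male Hartley guinea pigs (400-600 g) received compound in water by intratracheal instillation, then were paralysed, ventilated and challenged with histamine […] i.v. Tracheal pressure change gave % inhibition (≥3 animals/group); ED50 from log dose-response; duration as time until inhibition fell to 40%.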

[1] = system: guinea pig tracheal smooth muscle; test: Tracheal relaxant activity of VIP analogs on isolated guinea pig tracheal rings; format: cell-based; conditions: cumulative concentration response, relaxation as % of maximum response to VIP (10^-6 M=100%), three tissues pooled, linear regression
Outline: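 Male guinea pig tracheal rings under 1.5 g resting tension in Krebs at 37° C, 95% O2/5% CO2, isometric tension. Cumulative concentration-response curves; relaxation as % of response to 10^-6 M VIP added at end; three tissues pooled, EC50 by linear regression.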

| EC50 [1] [nM] | Compound | Bronchodilator activity of VIP analogs in guinea pigs, ED50 (guinea pigs) [μg] |
| --- | --- | --- |
| 0.7 | CCCC[C@H](NC(=O)[C@H](CCC(N)=O)NC(=O)[C@H](CCCCN)NC(=O)[C@H](CCCNC(=N)N)NC(=O)[C@H](CC(C)C)NC(=O)[C@H](CCCCN)NC(=O)[C@@H](NC(=O)[C@H](Cc1ccc(O)cc1)NC(=O)[C@H](CC(N)=O)NC(=O)[C@H](CC(=O)O)NC(=O)[C@@H](NC(=O)[C@H](Cc1ccccc1)NC(=O)[C@@H](NC(=O)[C@H](C)NC(=O)[C@H](CC(=O)O)NC(=O)[C@H](CO)NC(=O)[C@H](Cc1c[nH]cn1)NC(C)=O)C(C)C)[C@@H](C)O)[C@@H](C)O)C(=O)N[C@@H](C)C(=O)N[C@@H](C)C(=O)N[C@@H](CCCCN)C(=O)N[C@H]1CCCCNC(=O)C[C@@H](C(=O)N[C@H](C(=O)N[C@@H](CC(C)C)C(=O)N[C@H](C(N)=O)[C@@H](C)O)C(C)C)NC(=O)[C@H](CC(N)=O)NC(=O)[C@H](CC(C)C)NC(=O)[C@H](Cc2ccc(O)cc2)NC1=O [SEQ ID NO:29, Ac-[Lys^12,Nle^17,Ala^19,Asp^25,Val^26,Thr^28]-VIP cyclo (Lys^21 →Asp^25)] (Ac-HSDAVFTDNYTKLRKQ[Nle]AAKKYLNDVLT-NH2; lactam 21-25) | 0.34 |
| 0.31 | CCCC[C@H](NC(=O)[C@H](CCC(N)=O)NC(=O)[C@H](CCCCN)NC(=O)[C@H](CCCNC(=N)N)NC(=O)[C@H](CC(C)C)NC(=O)[C@H](CCCCN)NC(=O)[C@@H](NC(=O)[C@H](Cc1ccc(O)cc1)NC(=O)[C@H](CC(N)=O)NC(=O)[C@H](CCC(=O)O)NC(=O)[C@@H](NC(=O)[C@H](Cc1ccccc1)NC(=O)[C@@H](NC(=O)[C@H](C)NC(=O)[C@H](CC(=O)O)NC(=O)[C@H](CO)NC(=O)[C@H](Cc1c[nH]cn1)NC(C)=O)C(C)C)[C@@H](C)O)[C@@H](C)O)C(=O)N[C@@H](C)C(=O)N[C@@H](C)C(=O)N[C@@H](CCCCN)C(=O)N[C@H]1CCCCNC(=O)C[C@@H](C(=O)N[C@@H](CC(C)C)C(=O)N[C@@H](CCCCN)C(=O)N[C@@H](CCCCN)C(N)=O)NC(=O)[C@H](CC(N)=O)NC(=O)[C@H](CC(C)C)NC(=O)[C@H](Cc2ccc(O)c(F)c2)NC1=O [SEQ ID NO:58, Ac-[Glu^8,Lys^12,Nle^17,Ala^19,m-F-L-Tyr^22,Asp^25,Leu^26,Lys^27,28]-VIP cyclo (Lys^21 →Asp^25)] (Ac-HSDAVFTENYTKLRKQ[Nle]AAKK[Tyr(3-F)]LNDLKK-NH2; lactam 21-25) | 0.03 |
